Like-named read-outs stand apart in the source and are kept apart here.
Key:
[1] = test system: threshold value of pain due to pressure stimuli (tail); settings: for Analgesic effect: 100% = threshold raised by 160 g; for ED50: Mus musculus, po
Vascular permeability [2] = experiment: Vascular permeability in mice (Whittle's method); type: in vivo, mouse (ddY strain, male); settings: for ED30: po; for Inhibition: dye leakage
Experimental: (i) Vascular permeability in mice (Whittle's method)
The test compound was orally administered to each ddY strain male mouse (weighing each about 20 g). After 20 minutes, 0.1 ml/10 g of a 4%(Wt/V) solution of Pontamine Sky Blue in physiological saline was intravenously injected and 10 minutes thereafter 0.1 ml/10 g of a 0.7%(V/V) solution of acetic acid in physiological saline was injected intraperitoneally. After 30 minutes, the mice were killed by suffocation with chloroform. After immediate laparotomy, the dye leaked into the peritoneal cavity was washed out with distilled water. The washings were made up with water to 30 ml and the absorbance at 620 mμ was measured. The amount of leaked dye per 20 g of mouse weight was compared.

Adjuvant arthritis = experiment: Adjuvant arthritis; type: in vivo, rat (Sprague-Dawley strain, male); settings: 1 mg/kg p.o./day, mean during one week
Experimental: A suspension containing 6 mg/ml of killed and dried Mycobacterium butyricum in liquid paraffin was subcutaneously injected into the subplantar region of the left hind paw of Sprague-Dawley strain male rats (weighing 180 to 200 g) in a proportion of 0.1 ml/rat. After 14 days, the rats having inflammatory paws of similar volumes were selected and the test compound was orally administered to the rats repeatedly at the rate shown in Table 4 during one week and the mean inhibitory percent of swelling during one week was determined.

[3] = test system: pain threshold (brewer's yeast, hind paw); experiment: Analgesic activity, Randall-Selitto method in rat; type: in vivo, rat (Wistar strain, male); settings: for Inhibition: 100% = pain threshold raised by 150 g
Experimental: (ii) Randall-Selitto method in rat
After one hour, the test compound was orally administered. One hour thereafter, the pain threshold value was measured four times at a time interval of one hour. The mean value of four values obtained was taken as the pain threshold value of each group of rats. The activity of the drug was assumed to be 100% when the pain threshold value was raised by 150 g.

[4] = test system: fever (Mycobacterium butyricum); experiment: Antipyretic action; type: in vivo, rat (Wistar strain, female)
Experimental: A suspension (0.6 mg/0.1 ml) of killed and dried Mycobacterium butyricum in liquid paraffin was subcutaneously injected in an amount of 0.1 ml into the subplantar region of the hind paw of each Wistar strain female rat weighing about 180 g. After 14 hours, the fevered rats were divided into groups, and each test compound was orally administered to each group to examine the antipyretic effect.

Vascular permeability [5] = experiment: Vascular permeability in rat (Whittle's method); type: in vivo, rat (Wistar strain, male)
Experimental: (ii) Vascular permeability in rat (Whittle's method)
The test compound was orally administered to each Wistar strain male rat (weighing about 150 g) which had been fasted overnight. After 55 minutes, 0.5 ml of a 0.5% Evans Blue solution was intravenously injected. Five minutes thereafter, 0.2 ml/100 g of a 3%(V/V) acetic acid solution was intraperitoneally injected. After 60 minutes from the injection of the acetic acid solution, the rats were killed by suffocation with chloroform. After immediate laparotomy, the dye leaked into the peritoneal cavity was washed out with physiological saline. The washings were made up with the saline to 30 ml and the absorbance at 640 mμ was measured to examine the effect of the test compounds by comparing the amounts of leaked dye per rat with one another.

[6] = test system: Carrageenin-induced edema; experiment: Carrageenin-induced edema; type: in vivo, rat (Donryu strain, male); settings: Rattus norvegicus, po, read-out: Inhibitory percent of swelling; for inhibition in vivo at 15 mg/kg: 15 mg/kg p.o.
Experimental: (iii) Carrageenin-induced edema
Each of the 6 Donryu strain male rats per group (each weighing about 140 g), which had been fasted overnight, was orally loaded with 4 ml of water and, after 30 minutes, the test compound was orally administered thereto. Thirty minutes thereafter, a 1%(Wt/V) solution of carrageenin in physiological saline was subcutaneously injected into the subplantar region of the left hind paw. At a time interval of one hour, starting from the end of the first hour till the end of the fifth hour after injection of carrageenin, the paw volume was measured by means of a manometer and pressure transducer. By comparison with the percent increase in swelling of the control group of rats to which a 0.5%(V/V) solution of Tween 80 had been administered, the mean inhibitory percent in 5 hours of swelling was calculated by the following equation: [formula]

[7] = test system: phenylbenzoquinone writhing; experiment: Analgesic activity, phenylbenzoquinone method in mouse; type: in vivo, mouse (ddY strain, male); settings: for Frequency of writhing, mean ± S.E.: during 10 minutes
Experimental: (i) Phenylbenzoquinone method in mouse
The test compound was orally administered to each ddY strain male mouse (weighing 22±2 g; 8 mice per group). […] The frequency of writhing during 10 minutes from 5-minutes after the injection of phenylbenzoquinone was measured and compared with that of a control group to which a 0.5% Tween 80 solution was administered. The percent inhibition was calculated by the following equation: [formula]

in vivo = settings: rat, po
[8] = Mus musculus, po, 10 min, read-out: Inhibition
[9] = Mus musculus, po, 10 min, writhing, 40 mg/kg p.o.

Question: For `O=C(O)Cc1ccccc1Nc1c(Cl)cccc1Cl` [Diclofenac sodium], which Analgesic effect ([1]; 5 mg/kg p.o.) is on record?
Answer: The Analgesic effect was 31%.

Question: And the Analgesic effect ([1]; 20 mg/kg p.o.)?
Answer: The Analgesic effect was 71%.

Question: And the ED50 [1]?
Answer: The ED50 was 9.5 mg/kg.

Question: What about the “Dye leakage (P.S.B.) mean ± S.E.” value (Vascular permeability [2]; 10 mg/kg p.o.) of the same compound?
Answer: Its value is 227.0 ± 14.4 μg/20g.

Question: And the “Dye leakage (P.S.B.) mean ± S.E.” value (Vascular permeability [2]; 20 mg/kg p.o.)?
Answer: Its value is 205.3 ± 10.1 μg/20g.

Question: And the ED30 (Vascular permeability [2]; Mus musculus)?
Answer: Its ED30 is 14 mg/kg.

Question: And the Inhibition (Vascular permeability [2]; 5 mg/kg p.o.)?
Answer: Its Inhibition is 5.4%.

Question: What about the Inhibition (Vascular permeability [2]; 20 mg/kg p.o.) of the same compound?
Answer: Its Inhibition is 36.0%.

Question: And the “Inhibitory percent of swelling” value (Adjuvant arthritis)?
Answer: Its value is 10.9%.

Question: And the Inhibition ([3]; 1 mg/kg p.o.)?
Answer: The Inhibition was 22.7%.

Question: What about the Inhibition ([3]; 5 mg/kg p.o.) of the same compound?
Answer: The Inhibition was 49.7%.

Question: What about the Inhibition ([3]; 25 mg/kg p.o.) of the same compound?
Answer: The Inhibition was 74.9%.

Question: And the ED50 ([3]; Rattus norvegicus, po)?
Answer: The ED50 was 5.3 mg/kg.

Question: And the “Mean decrease in temp.” value ([4]; 0.2 mg/kg p.o.)?
Answer: Its value is 0.88 °C.

Question: And the “Mean decrease in temp.” value ([4]; 1 mg/kg p.o.)?
Answer: The value was 1.63 °C.

Question: And the “Mean decrease in temp.” value ([4]; 5 mg/kg p.o.)?
Answer: Its value is 1.57 °C.

Question: And the ED1.0 ([4]; Rattus norvegicus, po)?
Answer: The ED1.0 was 0.25 mg/kg.

Question: What about the Inhibition (Vascular permeability [5]; 1 mg/kg p.o.) of the same compound?
Answer: Its Inhibition is 5.4%.

Question: And the Inhibition (Vascular permeability [5]; 5 mg/kg p.o.)?
Answer: The Inhibition was 30.2%.

Question: What about the ED30 (Vascular permeability [5]; Rattus norvegicus, po) of the same compound?
Answer: The ED30 was 4.8 mg/kg.

Question: And the inhibition in vivo at 1 mg/kg ([6]; 5 h)?
Answer: The inhibition in vivo at 1 mg/kg was 6.4%.

Question: What about the inhibition in vivo at 5 mg/kg ([6]; 5 h) of the same compound?
Answer: Its inhibition in vivo at 5 mg/kg is 39.8%.

Question: And the “Frequency of writhing, mean ± S.E.” value ([7]; 5 mg/kg p.o.)?
Answer: Its value is 21.4 ± 3.0.

Question: What about the “Frequency of writhing, mean ± S.E.” value ([7]; 10 mg/kg p.o.) of the same compound?
Answer: The value was 16.2 ± 3.1.

Question: And the “Frequency of writhing, mean ± S.E.” value ([7]; 20 mg/kg p.o.)?
Answer: Its value is 10.9 ± 1.7.

Question: And the ED50 ([7]; Mus musculus, po)?
Answer: Its ED50 is 17.7 mg/kg.

Question: And the inhibition in vivo at 5 mg/kg [7, 8]?
Answer: Its inhibition in vivo at 5 mg/kg is 9.3%.

Question: What about the inhibition in vivo at 20 mg/kg [7, 8] of the same compound?
Answer: Its inhibition in vivo at 20 mg/kg is 53.8%.

Question: Which results are given for `CCc1ccsc1-c1ccc(C(C)C(=O)O)cc1` (stereo not drawn) [Compound C1]?
Answer: Dye leakage (P.S.B.) mean ± S.E. (Vascular permeability [2]; 10 mg/kg p.o.): 316.9 ± 29.0 μg/20g; Dye leakage (P.S.B.) mean ± S.E. (Vascular permeability [2]; 20 mg/kg p.o.): 245.9 ± 15.4 μg/20g; Inhibition (Vascular permeability [2]; 10 mg/kg p.o.): 18.0%; Inhibition (Vascular permeability [2]; 20 mg/kg p.o.): 36.4%; ED30 (Vascular permeability [2]; mouse, read-out: ED30): 16 mg/kg; LD50 (in vivo): > 400 mg/kg; inhibition in vivo at 5 mg/kg ([6]; 5 mg/kg p.o., mean in 5 hours): 9.3%; Frequency of writhing, mean ± S.E. ([7]; 10 mg/kg p.o.): 23.6 ± 5.0; Frequency of writhing, mean ± S.E. ([7]; 20 mg/kg p.o.): 23.7 ± 4.4; Frequency of writhing, mean ± S.E. ([7]; 40 mg/kg p.o.): 23.1 ± 3.9; inhibition in vivo at 10 mg/kg ([7]; Mus musculus, po, 10 min, writhing, 10 mg/kg p.o., read-out: Inhibition): 0%; inhibition in vivo at 20 mg/kg ([7]; Mus musculus, po, 10 min, writhing, 20 mg/kg p.o., read-out: Inhibition): -0.4%; inhibition in vivo at 40 mg/kg [7, 9]: 2.1%; ED50 ([7]; po, mouse, read-out: ED50): > 50 mg/kg

Question: What does the source list for `CC(C)Cc1ccc(C(C)C(=O)O)cc1` (stereo not drawn) [Ibuprofen]?
Answer: Analgesic effect ([1]; 20 mg/kg p.o.): 36%; Analgesic effect ([1]; 80 mg/kg p.o.): 60%; ED50 [1]: 44.5 mg/kg

Question: For `Cc1ccc(-c2ccc(C(C)C(=O)O)cc2)s1` (stereo not drawn) [Compound C6], which inhibition in vivo at 5 mg/kg ([6]; 5 mg/kg p.o., mean in 5 hours) is on record?
Answer: The inhibition in vivo at 5 mg/kg was 19.1%.

Question: What about the inhibition in vivo at 15 mg/kg ([6]; mean in 5 hours) of the same compound?
Answer: The inhibition in vivo at 15 mg/kg was 31.4%.

Question: What about the “Frequency of writhing, mean ± S.E.” value ([7]; 40 mg/kg p.o.) of the same compound?
Answer: Its value is 18.2 ± 2.8.

Question: What about the inhibition in vivo at 40 mg/kg [7, 9] of the same compound?
Answer: Its inhibition in vivo at 40 mg/kg is 22.9%.

Question: What about the ED50 ([7]; po, mouse, read-out: ED50) of the same compound?
Answer: Its ED50 is greater than 50 mg/kg.

Question: With `CCCc1ccsc1-c1ccc(C(C)C(=O)O)cc1` (stereo not drawn) [Compound C4] as the compound, how does the inhibition in vivo at 5 mg/kg ([6]; 5 mg/kg p.o., mean in 5 hours) read?
Answer: Its inhibition in vivo at 5 mg/kg is -7.2%.

Question: And the inhibition in vivo at 15 mg/kg ([6]; mean in 5 hours)?
Answer: Its inhibition in vivo at 15 mg/kg is -2.7%.

Question: And the “Frequency of writhing, mean ± S.E.” value ([7]; 40 mg/kg p.o.)?
Answer: Its value is 24.0 ± 2.6.

Question: And the inhibition in vivo at 40 mg/kg [7, 9]?
Answer: Its inhibition in vivo at 40 mg/kg is -1.7%.

Question: And the ED50 ([7]; po, mouse, read-out: ED50)?
Answer: The ED50 was greater than 50 mg/kg.

Question: With `Cc1csc(-c2ccc(C(C)C(=O)O)cc2)c1` (stereo not drawn) [Compound C5] as the compound, how does the inhibition in vivo at 3 mg/kg ([6]; 3 mg/kg p.o., mean in 5 hours) read?
Answer: The inhibition in vivo at 3 mg/kg was -25.7%.

Question: What about the inhibition in vivo at 10 mg/kg ([6]; 10 mg/kg p.o., mean in 5 hours) of the same compound?
Answer: The inhibition in vivo at 10 mg/kg was 0.7%.

Question: What about the “Frequency of writhing, mean ± S.E.” value ([7]; 40 mg/kg p.o.) of the same compound?
Answer: The value was 23.4 ± 1.9.

Question: And the inhibition in vivo at 40 mg/kg [7, 9]?
Answer: The inhibition in vivo at 40 mg/kg was 0.8%.

Question: What about the ED50 ([7]; po, mouse, read-out: ED50) of the same compound?
Answer: Its ED50 is greater than 50 mg/kg.

— patent US4230719A, “Novel 2-[4-(3-methyl-2-thienyl)phenyl]propionic acid and pharmaceutically acceptable salt thereof and method for treating symptoms of inflammation and pain” (Toyama Chemical Co., Ltd., priority 1977, dated 1980)
